Measured values as given in ChEMBL document CHEMBL1135985, “Synthesis, pharmacokinetics, efficacy, and rat retinal toxicity of a novel mitomycin C-triamcinolone acetonide conjugate” (J Med Chem, 2002).

Tests used:
NIH3T3 [1] = experiment: Inhibition of NIH 3T3 cell growth required to induce 50% of maximum response using antiproliferative assay; type: functional, cell-based; conditions: Mus musculus
NIH3T3 [2] = experiment: Maximal percent of fibroblast cell growth inhibition using antiproliferative assay; type: functional, Mus musculus

| Compound | IC50 (NIH3T3 [1]) | Inhibition (NIH3T3 [2]) |
| --- | --- | --- |
| CO[C@@]12[C@H](COC(N)=O)C3=C(C(O)=C(C)C(=N)C3=O)N1C[C@H]1[C@@H]2N1C(=O)CCCC(=O)OCC(=O)[C@@]12OC(C)(C)O[C@@H]1CC1C3CCC4=CC(=O)C=C[C@]4(C)[C@@]3(F)[C@@H](O)C[C@@]12C (stereo partly drawn) | 2400 nM | 67% |
| CO[C@@]12[C@H](COC(N)=O)C3=C(C(=O)C(C)=C(N)C3=O)N1C[C@@H]1N[C@@H]12 [MITOMYCIN] | 1700 nM | 88% |
| CC1(C)O[C@@H]2CC3C4CCC5=CC(=O)C=C[C@]5(C)[C@@]4(F)[C@@H](O)C[C@]3(C)[C@]2(C(=O)CO)O1.CO[C@@]12[C@H](COC(N)=O)C3=C(C(=O)C(C)=C(N)C3=O)N1C[C@@H]1N[C@@H]12 (stereo partly drawn) [MIXTURE OF MMC AND TA] | 1600 nM | 83% |
| CC1(C)O[C@@H]2C[C@H]3[C@@H]4CCC5=CC(=O)C=C[C@]5(C)[C@@]4(F)[C@@H](O)C[C@]3(C)[C@]2(C(=O)CO)O1 [TRIAMCINOLONE ACETONIDE] | 2500 nM | 25% |
